According to PubChem BioAssay (NCI):
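Each compound was tested at five concentrations against cells in 96-well plates for 48 hours. Definition used: TGI = concentration required for complete inhibition of growth.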

Key:
Experiment in all cases: NCI tumour cell line growth inhibition, 48 h
CCRF-CEM leukemia = system: CCRF-CEM leukemia
OVCAR-8 ovarian = system: OVCAR-8 ovarian
HOP-92 NSCLC = system: HOP-92 NSCLC
OVCAR-3 ovarian = system: OVCAR-3 ovarian
BT-549 breast = system: BT-549 breast
SK-MEL-2 melanoma = system: SK-MEL-2 melanoma
COLO 205 colon = system: COLO 205 colon
HL-60(TB) leukemia = system: HL-60(TB) leukemia
OVCAR-5 ovarian = system: OVCAR-5 ovarian
IGROV1 ovarian = system: IGROV1 ovarian
UACC-257 melanoma = system: UACC-257 melanoma
A549 NSCLC = system: A549 NSCLC
SK-OV-3 ovarian = system: SK-OV-3 ovarian
MDA-N = system: MDA-N
SNB-19 CNS = system: SNB-19 CNS
ACHN renal = system: ACHN renal
EKVX NSCLC = system: EKVX NSCLC
MDA-MB-231 breast = system: MDA-MB-231 breast
U251 CNS = system: U251 CNS
M14 melanoma = system: M14 melanoma
SNB-75 CNS = system: SNB-75 CNS
HCT-116 colon = system: HCT-116 colon
SF-268 CNS = system: SF-268 CNS
SK-MEL-5 melanoma = system: SK-MEL-5 melanoma
SF-539 CNS = system: SF-539 CNS
MOLT-4 leukemia = system: MOLT-4 leukemia
NCI-H460 lung = system: NCI-H460 lung
TK-10 renal = system: TK-10 renal
A498 renal = system: A498 renal
MALME-3M melanoma = system: MALME-3M melanoma
SW-620 colon = system: SW-620 colon
PC-3 prostate = system: PC-3 prostate
OVCAR-4 ovarian = system: OVCAR-4 ovarian
SF-295 CNS = system: SF-295 CNS
CAKI-1 renal = system: CAKI-1 renal
RPMI-8226 leukemia = system: RPMI-8226 leukemia
DU-145 prostate = system: DU-145 prostate
NCI-H522 lung = system: NCI-H522 lung
UACC-62 melanoma = system: UACC-62 melanoma
NCI/ADR-RES ovarian = system: NCI/ADR-RES ovarian
NCI-H23 lung = system: NCI-H23 lung
KM12 colon = system: KM12 colon
HT29 colon = system: HT29 colon
T-47D breast = system: T-47D breast
HS 578T breast = system: HS 578T breast
SR leukemia = system: SR leukemia
RXF 393 renal = system: RXF 393 renal
786-0 renal = system: 786-0 renal
HOP-62 NSCLC = system: HOP-62 NSCLC
SN12C renal = system: SN12C renal
LOX IMVI melanoma = system: LOX IMVI melanoma
MCF7 breast = system: MCF7 breast
HCT-15 colon = system: HCT-15 colon
HCC-2998 colon = system: HCC-2998 colon
NCI-H226 lung = system: NCI-H226 lung
MDA-MB-435 = system: MDA-MB-435
SK-MEL-28 melanoma = system: SK-MEL-28 melanoma
UO-31 renal = system: UO-31 renal
K-562 leukemia = system: K-562 leukemia

## N#Cc1nc(-c2cccs2)oc1N
CCRF-CEM leukemia
  TGI: > 100 µM
OVCAR-8 ovarian
  TGI: > 100 µM
HOP-92 NSCLC
  TGI: > 100 µM
OVCAR-3 ovarian
  TGI: > 100 µM
BT-549 breast
  TGI: > 100 µM
SK-MEL-2 melanoma
  TGI: > 100 µM
COLO 205 colon
  TGI: > 100 µM
HL-60(TB) leukemia
  TGI: > 100 µM
OVCAR-5 ovarian
  TGI: > 100 µM
IGROV1 ovarian
  TGI: > 100 µM
UACC-257 melanoma
  TGI: > 100 µM
A549 NSCLC
  TGI: > 100 µM
SK-OV-3 ovarian
  TGI: > 100 µM
MDA-N
  TGI: > 100 µM
SNB-19 CNS
  TGI: > 100 µM
ACHN renal
  TGI: > 100 µM
EKVX NSCLC
  TGI: > 100 µM
MDA-MB-231 breast
  TGI: > 100 µM
U251 CNS
  TGI: > 100 µM
M14 melanoma
  TGI: > 100 µM
SNB-75 CNS
  TGI: > 100 µM
HCT-116 colon
  TGI: > 100 µM
SF-268 CNS
  TGI: > 100 µM
SK-MEL-5 melanoma
  TGI: > 100 µM
SF-539 CNS
  TGI: > 100 µM
MOLT-4 leukemia
  TGI: > 100 µM
NCI-H460 lung
  TGI: > 100 µM
TK-10 renal
  TGI: > 100 µM
A498 renal
  TGI: > 100 µM
MALME-3M melanoma
  TGI: > 100 µM
SW-620 colon
  TGI: > 100 µM
PC-3 prostate
  TGI: > 100 µM
OVCAR-4 ovarian
  TGI: > 100 µM
SF-295 CNS
  TGI: > 100 µM
CAKI-1 renal
  TGI: 53.1 µM
RPMI-8226 leukemia
  TGI: > 100 µM
DU-145 prostate
  TGI: > 100 µM
NCI-H522 lung
  TGI: 92 µM
UACC-62 melanoma
  TGI: > 100 µM
NCI/ADR-RES ovarian
  TGI: > 100 µM
NCI-H23 lung
  TGI: > 100 µM
KM12 colon
  TGI: > 100 µM
HT29 colon
  TGI: > 100 µM
T-47D breast
  TGI: > 100 µM
HS 578T breast
  TGI: > 100 µM
SR leukemia
  TGI: > 100 µM
RXF 393 renal
  TGI: > 100 µM
786-0 renal
  TGI: > 100 µM
HOP-62 NSCLC
  TGI: > 100 µM
SN12C renal
  TGI: > 100 µM
LOX IMVI melanoma
  TGI: > 100 µM
MCF7 breast
  TGI: > 100 µM
HCT-15 colon
  TGI: > 100 µM
HCC-2998 colon
  TGI: > 100 µM
NCI-H226 lung
  TGI: > 100 µM
MDA-MB-435
  TGI: > 100 µM
SK-MEL-28 melanoma
  TGI: > 100 µM
UO-31 renal
  TGI: > 100 µM
K-562 leukemia
  TGI: > 100 µM

## C=CCSS/C=C/CS(=O)CC=C (stereo not drawn)
CCRF-CEM leukemia
  TGI: > 100 µM
OVCAR-8 ovarian
  TGI: 37.1 µM
HOP-92 NSCLC
  TGI: > 100 µM
OVCAR-3 ovarian
  TGI: > 95.9 µM
BT-549 breast
  TGI: > 56.7 µM
SK-MEL-2 melanoma
  TGI: 97.6 µM
COLO 205 colon
  TGI: 66.5 µM
HL-60(TB) leukemia
  TGI: > 100 µM
OVCAR-5 ovarian
  TGI: 98.8 µM
IGROV1 ovarian
  TGI: > 100 µM
UACC-257 melanoma
  TGI: > 100 µM
A549 NSCLC
  TGI: > 100 µM
SK-OV-3 ovarian
  TGI: > 100 µM
MDA-N
  TGI: 35.9 µM
SNB-19 CNS
  TGI: > 100 µM
ACHN renal
  TGI: > 100 µM
EKVX NSCLC
  TGI: > 100 µM
MDA-MB-231 breast
  TGI: 56.3 µM
U251 CNS
  TGI: > 100 µM
M14 melanoma
  TGI: 44.1 µM
SNB-75 CNS
  TGI: > 100 µM
HCT-116 colon
  TGI: 27.3 µM
SF-268 CNS
  TGI: 60.7 µM
SK-MEL-5 melanoma
  TGI: > 100 µM
SF-539 CNS
  TGI: 51.6 µM
MOLT-4 leukemia
  TGI: > 29.5 µM
NCI-H460 lung
  TGI: > 100 µM
TK-10 renal
  TGI: > 100 µM
A498 renal
  TGI: > 100 µM
MALME-3M melanoma
  TGI: > 100 µM
SW-620 colon
  TGI: 22.7 µM
PC-3 prostate
  TGI: > 100 µM
OVCAR-4 ovarian
  TGI: 99.3 µM
SF-295 CNS
  TGI: > 100 µM
CAKI-1 renal
  TGI: > 62.7 µM
RPMI-8226 leukemia
  TGI: 48.8 µM
DU-145 prostate
  TGI: > 100 µM
NCI-H522 lung
  TGI: 32.3 µM
UACC-62 melanoma
  TGI: > 82.7 µM
NCI/ADR-RES ovarian
  TGI: 74.5 µM
NCI-H23 lung
  TGI: > 100 µM
KM12 colon
  TGI: > 100 µM
HT29 colon
  TGI: > 74.6 µM
T-47D breast
  TGI: > 100 µM
HS 578T breast
  TGI: > 77.4 µM
SR leukemia
  TGI: > 55.6 µM
RXF 393 renal
  TGI: 55.6 µM
786-0 renal
  TGI: 33.4 µM
HOP-62 NSCLC
  TGI: > 100 µM
SN12C renal
  TGI: > 65.9 µM
LOX IMVI melanoma
  TGI: 29.9 µM
MCF7 breast
  TGI: > 100 µM
HCT-15 colon
  TGI: > 100 µM
HCC-2998 colon
  TGI: > 100 µM
NCI-H226 lung
  TGI: > 100 µM
MDA-MB-435
  TGI: 37.3 µM
SK-MEL-28 melanoma
  TGI: 49.9 µM
UO-31 renal
  TGI: > 100 µM
K-562 leukemia
  TGI: > 77.9 µM
